# Results taken from US12060349B2, “Glucosylceramide synthase inhibitors” (Genzyme Corporation, priority 2012, dated 2024).
# pIC50: −log10 of the molar value.
# Columns and labels:
# C32 human melanoma cells = experiment: cell viability in the C32 cell-based assay (Viability, C32 IC50); conditions: Homo sapiens, C32, C32 cells; concentration causing 50% cell death; values greater than 10 represent a lack of cell death; read-out: Viability, C32 IC50
# Outline: (§1)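 Two melanoma lines, mouse B16 and human C32, were treated and surface GM3 quantified by antibody immunofluorescence for IC50. A parallel viability readout gives the concentration killing 50% of cells, with values over 10 indicating no cell death.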
# [1] = molecular target: T1, glucosylceramide synthase (Homo sapiens, UniProt Q16739); experiment: microsomal assay measuring conversion of ceramide to glucosylceramide by HPLC (GCS IC50); format: biochemical; conditions: concentration causing 50% inhibition of glucosylceramide synthase activity
# T1 construct: Microsomes were isolated from A375 human melanoma cells; endogenous in cells; host or cells: A375 human melanoma cells (microsomal fraction, 100,000 g pellet)
# T1 sequence (Q16739 1-394): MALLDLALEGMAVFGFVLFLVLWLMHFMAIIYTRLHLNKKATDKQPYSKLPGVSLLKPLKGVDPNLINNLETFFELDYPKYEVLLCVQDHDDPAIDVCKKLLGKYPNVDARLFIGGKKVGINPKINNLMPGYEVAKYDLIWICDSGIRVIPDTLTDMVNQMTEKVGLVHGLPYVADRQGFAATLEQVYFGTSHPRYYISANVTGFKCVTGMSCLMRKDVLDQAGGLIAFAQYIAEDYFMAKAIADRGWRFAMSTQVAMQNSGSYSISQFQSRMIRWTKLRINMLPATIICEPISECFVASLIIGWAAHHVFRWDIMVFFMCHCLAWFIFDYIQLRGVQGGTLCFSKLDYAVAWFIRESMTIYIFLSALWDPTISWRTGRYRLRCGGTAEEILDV
# Outline: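 Microsomal preparation assayed for glucosylceramide synthase by direct HPLC measurement of ceramide conversion to glucosylceramide. GCS IC50 is the compound concentration giving 50% inhibition of enzyme activity.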
# [2] = tested on: GM3 expression on the cell surface, C32 human melanoma cells; experiment: cell based phenotypic assay, cell surface GM3 by antibody mediated immunofluorescence, C32 (GM3 C32 IC50); conditions: Homo sapiens, C32 human melanoma cells; 50% inhibition of GM3 expression on the cell surface; read-out: GM3 C32 IC50
# Outline: (§2)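 B16 mouse and C32 human melanoma cells; cell-surface GM3 measured by antibody-mediated immunofluorescence, giving IC50.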
# B16 mouse melanoma cells = experiment: cell viability in the B16 cell-based assay (Viability, B16 IC50); conditions: Mus musculus, B16, B16 cells; concentration causing 50% cell death; values greater than 10 represent a lack of cell death; read-out: Viability, B16 IC50
# Outline: as §1
# [3] = tested on: GM3 expression on the cell surface, B16 mouse melanoma cells; experiment: cell based phenotypic assay, cell surface GM3 by antibody mediated immunofluorescence, B16 (GM3 B16 IC50); conditions: Mus musculus, B16 mouse melanoma cells; 50% inhibition of GM3 expression on the cell surface; read-out: GM3 B16 IC50
# Outline: as §2
Structure (SMILES),pIC50 (C32 human melanoma cells),pIC50 [1],pIC50 [2],pIC50 (B16 mouse melanoma cells),pIC50 [3]
"COCCOc1ccc(-c2ccnc(N3CCC(C(=O)NC4(C)CCN5CCC4CC5)CC3)n2)cc1 (stereo not drawn) [Example 66, 1-(4-(4-(2-Methoxyethoxy)phenyl)pyrimidin-2-yl)-N-(4-methyl-1-azabicyclo[3.2.2]nonan-4-yl)piperidine-4-carboxamide]",6.67,8.50,9.48,5.09,7.16
"COCCCOc1ccc(-c2ccnc(N3CCC(C(=O)NC4(C)CCN5CCC4CC5)CC3)n2)cc1 (stereo not drawn) [Example 67, 1-(4-(4-(3-Methoxypropoxy)phenyl)pyrimidin-2-yl)-N-(4-methyl-1-azabicyclo[3.2.2]nonan-4-yl)piperidine-4-carboxamide]",6.00,8.73,9.94,5.31,8.14
"COCCOc1ccc(-c2cccc(N3CCC(C(=O)NC4(C)CCN5CCC4CC5)CC3)c2)cc1 (stereo not drawn) [Example 68, 1-(4′-(2-Methoxyethoxy)-[1,1′-biphenyl]-3-yl)-N-(4-methyl-1-azabicyclo[3.2.2]nonan-4-yl)piperidine-4-carboxamide]",5.50,7.67,8.45,5.15,6.88
"COCCOCc1ccc(-c2cccc(N3CCC(C(=O)NC4(C)CCN5CCC4CC5)CC3)c2)cc1 (stereo not drawn) [Example 69, 1-(4′-((2-Methoxyethoxy)methyl)-[1,1′-biphenyl]-3-yl)-N-(4-methyl-1-azabicyclo[3.2.2]nonan-4-yl)piperidine-4-carboxamide]",6.00,7.44,8.33,5.33,6.52
"COCc1ccc(-c2ccnc(N3CCC(C(=O)NC4(C)CCN5CCC4CC5)CC3)n2)cc1 (stereo not drawn) [Example 70, 1-(4-(4-(Methoxymethyl)phenyl)pyrimidin-2-yl)-N-(4-methyl-1-azabicyclo[3.2.2]nonan-4-yl)piperidine-4-carboxamide]",6.00,8.40,10.04,6.00,7.81
"CC1(NC(=O)C2CCN(c3nccc(-c4ccc(OCCF)cc4)n3)CC2)CCN2CCC1CC2 (stereo not drawn) [Example 71, 1-(4-(4-(2-Fluoroethoxy)phenyl)pyrimidin-2-yl)-N-(4-methyl-1-azabicyclo[3.2.2]nonan-4-yl)piperidine-4-carboxamide]",8.00,8.61,9.90,5.67,8.37
"COCCCOc1ccc(-c2ccnc(N3CCC(C(=O)NC4CN5CCC4CC5)CC3)n2)cc1 (stereo not drawn) [Example 72, 1-(4-(4-(3-Methoxypropoxy)phenyl)pyrimidin-2-yl)-N-(quinuclidin-3-yl)piperidine-4-carboxamide]",6.33,8.94,9.59,5.06,7.10
"COCc1ccc(-c2ccnc(N3CCC(C(=O)NC4(C)CN5CCC4CC5)CC3)n2)cc1 (stereo not drawn) [Example 73, 1-(4-(4-(Methoxymethyl)phenyl)pyrimidin-2-yl)-N-(3-methylquinuclidin-3-yl)piperidine-4-carboxamide]",6.20,8.46,9.60,5.33,7.32
"COCCOCc1ccc(-c2ccnc(N3CCC(C(=O)NC4(C)CCN5CCC4CC5)CC3)n2)cc1 (stereo not drawn) [Example 74, 1-(4-(4-((2-Methoxyethoxy)methyl)phenyl)pyrimidin-2-yl)-N-(4-methyl-1-azabicyclo[3.2.2]nonan-4-yl)piperidine-4-carboxamide]",6.67,7.89,9.15,≤ 5.00,7.49
"COCc1ccc(-c2ccnc(N3CCC(F)(C(=O)NC4(C)CCN5CCC4CC5)CC3)n2)cc1 (stereo not drawn) [Example 75, 4-Fluoro-1-(4-(4-(methoxymethyl)phenyl)pyrimidin-2-yl)-N-(4-methyl-1-azabicyclo[3.2.2]nonan-4-yl)piperidine-4-carboxamide]",6.50,8.55,9.42,5.28,7.31
"COCCCOc1ccc(-c2ccnc(N3CCC(F)(C(=O)NC4(C)CN5CCC4CC5)CC3)n2)cc1 (stereo not drawn) [Example 76, 4-Fluoro-1-(4-(4-(3-methoxypropoxy)phenyl)pyrimidin-2-yl)-N-(3-methylquinuclidin-3-yl)piperidine-4-carboxamide]",6.00,8.87,9.85,5.41,7.23
"COCCOCc1ccc(-c2nc(N3CCC(F)(C(=O)NC4(C)CCN5CCC4CC5)CC3)ncc2F)cc1 (stereo not drawn) [Example 77, 4-Fluoro-1-(5-fluoro-4-(4-((2-methoxyethoxy)methyl)phenyl)pyrimidin-2-yl)-N-(4-methyl-1-azabicyclo[3.2.2]nonan-4-yl)piperidine-4-carboxamide]",6.50,8.78,9.50,5.42,7.06
"COCc1ccc(-c2ccnc(N3CCC(F)(C(=O)NC4(C)CN5CCC4CC5)CC3)n2)cc1 (stereo not drawn) [Example 80, 4-Fluoro-1-(4-(4-(methoxymethyl)phenyl)pyrimidin-2-yl)-N-(3-methylquinuclidin-3-yl)piperidine-4-carboxamide]",6.67,8.40,9.28,≤ 5.00,7.16
"COCc1ccc(-c2ccnc(N3CCC(F)(C(=O)N[C@]4(C)CN5CCC4CC5)CC3)n2)cc1 [Example 81, (S)-4-Fluoro-1-(4-(4-(methoxymethyl)phenyl)pyrimidin-2-yl)-N-(3-methylquinuclidin-3-yl)piperidine-4-carboxamide]",6.50,8.64,9.65,≤ 5.00,7.32
"COCCCOc1ccc(-c2ccnc(N3CCC(F)(C(=O)NC4(C)CCN5CCC4CC5)CC3)n2)cc1 (stereo not drawn) [Example 82, 4-Fluoro-1-(4-(4-(3-methoxypropoxy)phenyl)pyrimidin-2-yl)-N-(4-methyl-1-azabicyclo[3.2.2]nonan-4-yl)piperidine-4-carboxamide]",6.00,8.90,9.89,5.55,7.38
"COCCOCc1ccc(-c2ccnc(N3CCC(F)(C(=O)NC4(C)CN5CCC4CC5)CC3)n2)cc1 (stereo not drawn) [Example 83, 4-Fluoro-1-(4-(4-((2-methoxyethoxy)methyl)phenyl)pyrimidin-2-yl)-N-(3-methylquinuclidin-3-yl)piperidine-4-carboxamide]",6.00,7.87,8.95,≤ 5.00,6.92
"COCCOCc1ccc(-c2ccnc(N3CCC(F)(C(=O)N[C@]4(C)CN5CCC4CC5)CC3)n2)cc1 [Example 84, (S)-4-Fluoro-1-(4-(4-((2-methoxyethoxy)methyl)phenyl)pyrimidin-2-yl)-N-(3-methylquinuclidin-3-yl)piperidine-4-carboxamide]",6.00,8.27,9.21,≤ 5.00,7.04
"COCCOc1ccc(-c2ccnc(N3CCC(F)(C(=O)NC4(C)CN5CCC4CC5)CC3)n2)cc1 (stereo not drawn) [Example 85, 4-Fluoro-1-(4-(4-(2-methoxyethoxy)phenyl)pyrimidin-2-yl)-N-(3-methylquinuclidin-3-yl)piperidine-4-carboxamide]",6.50,7.98,9.41,≤ 5.00,7.10
"COCCOc1ccc(-c2ccnc(N3CCC(F)(C(=O)N[C@]4(C)CN5CCC4CC5)CC3)n2)cc1 [Example 86, (S)-4-Fluoro-1-(4-(4-(2-methoxyethoxy)phenyl)pyrimidin-2-yl)-N-(3-methylquinuclidin-3-yl)piperidine-4-carboxamide]",6.00,8.46,9.62,≤ 5.00,7.32
"O=C(NC1CN2CCC1CC2)C1(F)CCN(c2nccc(-c3ccc(OCCF)cc3)n2)CC1 (stereo not drawn) [Example 87, 4-Fluoro-1-(4-(4-(2-fluoroethoxy)phenyl)pyrimidin-2-yl)-N-(quinuclidin-3-yl)piperidine-4-carboxamide]",6.67,8.72,9.75,5.05,7.19
"O=C(N[C@@H]1CN2CCC1CC2)C1(F)CCN(c2nccc(-c3ccc(OCCF)cc3)n2)CC1 [Example 88, (S)-4-Fluoro-1-(4-(4-(2-fluoroethoxy)phenyl)pyrimidin-2-yl)-N-(quinuclidin-3-yl)piperidine-4-carboxamide]",6.00,8.77,9.60,≤ 5.00,7.25
